The target in one assay is T1, human CYP17 (Homo sapiens, UniProt P05093).
T1 sequence (P05093 1-508): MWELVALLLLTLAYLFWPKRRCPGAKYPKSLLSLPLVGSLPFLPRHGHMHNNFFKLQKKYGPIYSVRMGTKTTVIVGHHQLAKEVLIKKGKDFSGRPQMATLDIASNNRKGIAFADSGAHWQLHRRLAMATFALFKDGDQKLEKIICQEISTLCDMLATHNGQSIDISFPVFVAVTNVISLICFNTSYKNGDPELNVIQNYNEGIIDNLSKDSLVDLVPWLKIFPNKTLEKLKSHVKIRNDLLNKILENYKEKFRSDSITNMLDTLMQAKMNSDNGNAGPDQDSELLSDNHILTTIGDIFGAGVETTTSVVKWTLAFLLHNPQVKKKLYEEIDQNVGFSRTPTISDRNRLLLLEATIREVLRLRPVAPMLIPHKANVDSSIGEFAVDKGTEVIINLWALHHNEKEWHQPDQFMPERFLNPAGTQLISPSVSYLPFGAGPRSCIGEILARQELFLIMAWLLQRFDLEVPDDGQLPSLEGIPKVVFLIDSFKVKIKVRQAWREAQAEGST
As to the kind of experiment: Cell-based human CYP17 inhibition assay, LNCap-CYP17 cells. To be noted: 16 hours at 37° C. On the procedure: Cell-Based Human CYP17 Inhibition Assay
A. Materials • 1. H295R Adrenocortical Carcinoma Cells and Growth Media: The media for the H295R Adrenocortical carcinoma cells [NCI-H295A, ATCC Number CRL-2128, American Type Culture Collection, Manassas, Va., US] (500 mL) was a DMEM:F12 Mix 1:1 with 5% […] BD Nu Serum; 1% (5 mL) ITS+Premix [BD Biosciences] and 1% Penstrep. • 2. LNCap-CYP17 Cells and Growth Media: Full length hCYP17a1 gene (NCBI Reference Sequence: NM_000102.3) was cloned in pCDNA3.1(+) vector between HindIII and XhoI site. The pCDNA3.1(+) vector contains the Neomycin resistance gene and was used for selection of stable cell line. The hCYP17a1 containing pCDNA3.1(+) was transfected into LNCap cells to create the LNCap-CYP17 cell line. The media for the LNCaP-CYP17 cells was RPMI 1640, 10% FBS, 1% PenStrep, Geneticin 400 μg/mL.
The H295R cells or LNCaP-hCYP17 cells were subcultured and 30,000 cells per well were seeded in a poly-d lysine plate and incubated overnight at 37° C. The next day the media was removed and 200 µL of fresh media with ^3H3-17α-hydroxy-pregnenolone (1:1000) was added. 50 μL of serially diluted compounds from a 5× plate (5 times the final desired concentration) was added. The working concentration range for active, new compounds started from a high concentration of […] with 3-fold serial dilutions generating up to 10 concentrations. The serial dilution in the 100× plate (in DMSO) and the stamping of a 5× plate (in media) from the 100× plate were carried out using a TECAN liquid handling device.
The plates were incubated overnight (16 hours) at 37° C. After 16 hours, the media was removed (approximately 220 μL) and an equal amount of chloroform was added, mixed and incubated for 30 minutes at 4 degrees. The plate was centrifuged at 4000 rpm for 15 minutes at 4° C., following which the top aqueous layer was carefully removed and added into a new deep well plate. An equal volume of activated 5% charcoal was added, mixed and incubated for 30 minutes at 4° C. The plate was then centrifuged at 4000 rpm for 15 minutes at 4° C. and the top layer carefully separated, avoiding any charcoal contamination, and placed in a white, clear bottom plate (plate cat #3610, Corning Life Sciences). An equal volume of Microscint™ 40 was added and mixed well. Following the incubation for 30 minutes, readings for the radiotracer were taken using a Microbeta® trilux.
Take `CCC(c1cnc(-c2ccc(OC)cc2)s1)n1ccnc1` (stereo not drawn) [Example 35, 5-(1-Imidazol-1-yl-propyl)-2-(4-methoxy-phenyl)-thiazole]: the IC50 is 0.201 to 10 µM.

`CCC(c1cnc(-c2ccc(O)cc2)s1)n1ccnc1` (stereo not drawn) [Example 60, 4-[5-(1-Imidazol-1-yl-propyl)-thiazol-2-yl]-phenol] displayed an IC50 of 0.201 to 10 µM.

Turning to `CCC(c1ccc(-c2ccc(O)cc2)o1)n1ccnc1` (stereo not drawn) [Example 30, 4-[5-(1-Imidazol-1-yl-propyl)-furan-2-yl]-phenol], the IC50 was < 0.05 µM.

Turning to `CCOC(=O)c1ccc(-c2ccc(C(CC)n3ccnc3)nc2)cc1` (stereo not drawn) [Example 5, Ethyl 4-(6-(1-(1H-imidazol-1-yl)propyl)pyridin-3-yl)benzoate], the IC50 fell in the range of 0.201 to 10 µM.

For `CCC(c1ccc(-c2ccc(OC)cc2)o1)n1ccnc1` (stereo not drawn) [Example 27, 1-{1-[5-(4-Methoxy-phenyl)-furan-2-y]-propyl}-1H-imidazole], the IC50 is 0.05 to 0.2 µM.

Turning to `CCC(c1ccc(-c2cccc(OC)c2)cn1)n1ccnc1` (stereo not drawn) [Example 7, 2-(1-(1H-imidazol-1-yl)propyl)-5-(3-methoxyphenyl)pyridine], the IC50 was in the range of 0.05 to 0.2 µM.

The compound `CCC(c1ccc(-c2cccc(O)c2)cn1)n1ccnc1` (stereo not drawn) [Example 8, 3-(6-(1-(1H-imidazol-1-yl)propyl)pyridin-3-yl)phenol] gave an IC50 of 0.05 to 0.2 µM.

Turning to `CCC(c1ccc(-c2ccccc2OC)cn1)n1ccnc1` (stereo not drawn) [Example 56, 2-(1-Imidazol-1-yl-propyl)-5-(2-methoxy-phenyl)-pyridine], the IC50 is 0.201 to 10 µM.

In the case of `CCC(c1ccc(-c2ccccc2O)cn1)n1ccnc1` (stereo not drawn) [Example 37, 2-[6-(1-Imidazol-1-yl-propyl)-pyridin-3-yl]-phenol], the IC50 lay within 0.201 to 10 µM.

`CC(c1ccc(-c2ccc(O)cc2)s1)n1ccnc1` (stereo not drawn) [Example 49, 4-[5-(1-Imidazol-1-yl-ethyl)-thiophen-2-yl]-phenol] came in with an IC50 of 0.05 to 0.2 µM.

The test system of the next assay is testosterone production in H295R cells. As to the kind of experiment: Cell-based functional assay for testosterone production in H295R cells. To be noted: Homo sapiens, NCI-H295R, 72 hours, testosterone ELISA, read-out: Testosterone (human H295R adrenal cells). The procedure: Cell-based Functional Assay for Testosterone Production
H295R cells (ATCC Number CRL-2128) were subcultured, seeded (30,000 cells per well in a poly-d lysine plate) and left overnight at 37° C. The next day (after approximately 24 hours), the media were removed and 200 μL fresh media were added. Then, 50 μL of serially diluted compounds was added from a 5× plate. The serial dilution in the 100× plate (in DMSO) and the stamping of a 5× plate (in media) from the 100× plate were carried out using a TECAN liquid handling device. The plate was incubated at 37° C. for 72 hours. After incubation, the media was removed, diluted 5 to 10 times with calibration diluent RD5-48, and the assay performed as per manufacturer's protocol (Parameter Testosterone Assay, Cat. No. KGE010, R&D systems; http://www.rndsystems.com/pdf/KGE010.pdf).
Regarding `CC(c1ccc(-c2ccc(=O)n(C(C)C)c2)s1)n1ccnc1` (stereo not drawn) [Example 21, 5-(5-(1-(1H-imidazol-1-yl)ethyl)thiophen-2-yl)-1-isopropylpyridin-2(1H)-one], the IC50 is 0.201 to 10 µM.

For the compound `CC(c1cnc(-c2ccc(C#N)cc2)s1)n1ccnc1` (stereo not drawn) [Example 22, 4-(5-(1-(1H-imidazol-1-yl)ethyl)thiazol-2-yl)benzonitrile], the IC50 was in the range of 0.201 to 10 µM.

Regarding `CC(c1ccc(-c2ccc(=O)n(C)c2)s1)n1ccnc1` (stereo not drawn) [Example 20, 5-(5-(1-(1H-imidazol-1-yl)ethyl)thiophen-2-yl)-1-methylpyridin-2(1H)-one], the IC50 was < 0.05 µM.

On to `CC(c1ccc(-c2ccc(F)cc2)cn1)n1ccnc1` (stereo not drawn) [Example 12, 2-(1-(1H-imidazol-1-yl)ethyl)-5-(4-fluorophenyl)pyridine], for which the IC50 was in the range of 0.201 to 10 µM.

As for `CC(c1cnc(-c2ccc(F)cc2F)s1)n1ccnc1` (stereo not drawn) [Example 28, 2-(2,4-Difluoro-phenyl)-5-(1-imidazol-1-yl-ethyl)-thiazole], the IC50 fell in the range of 0.05 to 0.2 µM.

The values are drawn from patent US9199975B2, “Biaryl imidazole derivatives for regulating CYP17” (Asana Biosciences, LLC, priority 2011, dated 2015).
